What follows are compounds tested against T1, HCV-NS5b (Hepatitis C virus genotype 1b, UniProt Q9WMX2) (assay: HCV-NS5b Enzyme Assay). Details: 1 μM test compound; incorporation of [3H]-UTP, 37° C., 2 hours.
T1 construct: The cloned fragment was missing the C terminus 21 amino acid residues; (His)6 (C); made in house; host or cells: XL-1 cells (E. coli)
Format: biochemical
In short: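 The NS5B construct lacks its C-terminal 21 residues, carries a C-terminal His6 tag and was expressed in E. coli. [^3H]-UTP incorporation on a biotinylated HCV heteropolymeric template (10 ng/μL) with 10 μM each NTP, pH 7.5, 5 mM MgCl2 and 5% DMSO ran 2 h at 37° C and was read by SPA scintillation. IC50s came from 10-point 2-fold series starting at 50 or 2 μM.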

Row | Compound | inhibition at 1 µM [%]
1 | O=C(O)c1ccc2c(C3CCCCC3)c(-c3ccc4ncc(-c5ccccc5)nc4c3)n(CC(=O)N3CCOCC3)c2c1 [Compound 329, 3-Cyclohexyl-1-(2-morpholin-4-yl-2-oxo-ethyl)-2-(3-phenyl-quinoxalin-6-yl)-1H-indole-6-carboxylic acid] | 99.8
2 | O=C(O)c1ccc2c(C3CCCCC3)c(-c3ccc4nc(-c5cncs5)ccc4c3)n(CC(=O)N3CCOCC3)c2c1 [Compound 331, 3-Cyclohexyl-1-(2-morpholin-4-yl-2-oxo-ethyl)-2-(2-thiazol-5-yl-quinolin-6-yl)-1H-indole-6-carboxylic acid] | 97
3 | Cc1nc(C)c(-c2ccc3cc(-c4[nH]c5cc(C(=O)O)ccc5c4C4CCCCC4)ccc3n2)s1 [Compound 333, 3-Cyclohexyl-2-[2-(2,4-dimethyl-thiazol-5-yl)-quinolin-6-yl]-1H-indole-6-carboxylic acid] | 95.1
4 | Cc1nc(C)c(-c2ccc3cc(-c4[nH]c5c(C)c(C(=O)O)ccc5c4C4CCCCC4)ccc3n2)s1 [Compound 334, 3-Cyclohexyl-2-[2-(2,4-dimethyl-thiazol-5-yl)-quinolin-6-yl]-7-methyl-1H-indole-6-carboxylic acid] | 86.9

Further lines, results first:

Row | inhibition at 1 µM [%] | Compound
5 | 96.3 | O=C(O)c1ccc2c(C3CCCCC3)c(-c3ccc4ncc(-c5ccccc5)cc4c3)n(CC(=O)N3CCOCC3)c2c1 [Compound 327, 3-Cyclohexyl-1-(2-morpholin-4-yl-2-oxo-ethyl)-2-(3-phenyl-quinolin-6-yl)-1H-indole-6-carboxylic acid]
6 | 101 | O=C(O)c1ccc2c(C3CCCCC3)c(-c3ccc4cc(-c5ccccc5)ccc4c3)n(CC(=O)N3CCOCC3)c2c1 [Compound 328, 3-Cyclohexyl-1-(2-morpholin-4-yl-2-oxo-ethyl)-2-(6-phenyl-naphthalen-2-yl)-1H-indole-6-carboxylic acid]
7 | 96.8 | O=C(O)c1ccc2c(C3CCCCC3)c(-c3ccc4nc(-c5ccccc5)cnc4c3)n(CC(=O)N3CCOCC3)c2c1 [Compound 330, 3-Cyclohexyl-1-(2-morpholin-4-yl-2-oxo-ethyl)-2-(2-phenyl-quinoxalin-6-yl)-1H-indole-6-carboxylic acid]
8 | 100 | O=C(O)c1ccc2c(C3CCCCC3)c(-c3ccc(-c4ccccc4)cc3)n(CC(=O)N3CCOCC3)c2c1 [Compound 332, 2-Biphenyl-4-yl-3-cyclohexyl-1-(2-morpholin-4-yl-2-oxo-ethyl)-1H-indole-6-carboxylic acid]

Reference: patent US20060211698A1, “Bicyclic heteroaryl derivatives for treating viruses” (Genelabs, Inc., priority 2005, published 2006)
